# Experiments:
# [1] = test system: male Sprague-Dawley (SD) rats; test: Carrageenan-induced foot edema in rats (CFE); type: in vivo; conditions: oral dose 3 mg/kg body weight, rat, paw volume 3 hours after Carrageenan
# Procedure: An appropriate amount of a compound of this invention suspended in 1% methylcellulose (MC) solution was administered to male Sprague-Dawley (SD) rats weighing 150˜200 g by oral gavage. The volume of the administered vehicle for a compound of this invention was controlled to be smaller than 10 ml/kg body weight of the animal. One hour later, 0.1 ml of 1% Carrageenan saline solution was directly injected into the right paw of the rats to induce edema in the paw. The paw volumes at 0 hour and at 3 hours after the injection of Carrageenan were measured by using a displacement plethysmometer (Ugo Basile, Italy). The paw volumes were used to calculate % inhibition of CFE by an amount of a compound of this invention according to the following equation.
# % Inhibition of CFE=(1−Δtreated/Δcontrol)×100
# wherein Δtreated=[paw volume at three hours after the Carrageenan injection−paw volume right after Carrageenan injection] for a drug-administered rat, and Δcontrol=[paw volume at three hours after the Carrageenan injection−paw volume right after Carrageenan injection] for a rat without drug administration.
# In order to determine the inhibitory activity of a compound of this invention at a dose, usually 5 to 8 animals were used both for drug-treated group and for control group.
# male SD rat = test: Gastric safety studies (Ulcer Index); type: in vivo; conditions: daily dose 30 mg/kg body weight oral for 7 days, mean of animals' scores
# Procedure: Gastric safety for compounds of this invention was evaluated as follows [Otterness et al., Laboratory Models for Testing Nonsteroidal Anti-inflammatory Drugs in Nonsteroidal Anti-inflammatory Drugs; ed John Wiley & Sons pp 217-227 (1985); Wiley Interscience; New York]: A designated dose of a compound of this invention suspended in 1% methylcellulose solution was administered daily once for 7 days to a male SD rat by oral gavage. The animal was sacrificed and the inner wall of the stomach was examined visually 4 hours after the last administration (the 7th day administration). The gastric safety was assessed by the “Ulcer Index” as defined as the following scores: […]
# Score 1: apparently normal stomach.
# Score 2: one or more than one ulcer site of pin-point size only.
# Score 3: erosions of 2 or fewer than 2, which may be accompanied by ulcers of pin-point size (an erosion is defied by any ulcerative lesion of any dimension greater than 1 mm).
# Score 4: erosions more than 2, which may be accompanied by ulcers of pin-point size.
# Score 5: erosions accompanied by hemorrhage.
# In evaluating the gastric safety of a compound of this invention, usually 8 animals were used. The ulcer index for a compound was calculated by averaging of the ulcer index of each animal. The following Table 5 illustrates gastric safety of some COX-2 selective inhibitors of this invention.
# COX-2 = target: T1, COX-2 (Mus musculus, UniProt Q05769); test: Evaluation of COX-2 activity: PGE2 formation in aspirin-treated, LPS-stimulated mouse peritoneal macrophages; type: cell-based
# T1 sequence (Q05769 18-604): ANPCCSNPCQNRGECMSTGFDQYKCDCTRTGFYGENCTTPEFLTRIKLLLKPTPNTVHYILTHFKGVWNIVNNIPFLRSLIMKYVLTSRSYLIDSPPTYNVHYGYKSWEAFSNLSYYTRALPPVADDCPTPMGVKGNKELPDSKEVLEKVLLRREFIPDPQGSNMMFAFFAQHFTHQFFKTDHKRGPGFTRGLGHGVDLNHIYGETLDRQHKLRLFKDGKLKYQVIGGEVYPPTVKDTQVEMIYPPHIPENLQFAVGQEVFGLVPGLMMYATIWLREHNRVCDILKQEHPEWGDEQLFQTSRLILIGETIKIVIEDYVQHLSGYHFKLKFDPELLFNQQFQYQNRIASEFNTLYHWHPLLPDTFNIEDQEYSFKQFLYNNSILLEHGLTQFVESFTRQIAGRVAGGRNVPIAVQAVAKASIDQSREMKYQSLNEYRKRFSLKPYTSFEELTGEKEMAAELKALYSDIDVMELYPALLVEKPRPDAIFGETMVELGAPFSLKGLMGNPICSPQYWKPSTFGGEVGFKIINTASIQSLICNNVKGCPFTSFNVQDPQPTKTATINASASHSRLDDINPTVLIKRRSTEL
# Summary of the method: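 PGE2 output, quantified by radio- or enzyme-immunoassay, was read after 10 min exposure of cells to compound with 10 μM arachidonic acid. Cells were mouse peritoneal macrophages, COX-1 knocked out with 500 μM aspirin and COX-2 induced by 10 μg/ml LPS over 16 h. IC50 derived from 4–5 concentrations.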
smiles,measurement,setting,value
"CC1(C)OC(c2ccc(S(C)(=O)=O)cc2)=C(c2cccc(F)c2)C1=O [Example 4, 2,2-Dimethyl-4-(3-fluorophenyl)-5-{4-(methylsulfonyl)phenyl}-3(2H)-furanone]",% Inhibition (CFE),[1],36%
same,Ulcer Index (1˜5),male SD rat,1.8 ± 0.7
same,"IC50, μg/ml COX-2",COX-2,0.02 µg/mL
"CC1(C)OC(c2ccc(S(C)(=O)=O)cc2)=C(c2cc(F)cc(F)c2)C1=O [Example 11, 4-(3,5-Difluorophenyl)-2,2-dimethyl-5-{4-(methylsulfonyl)phenyl}-3(2H)-furanone]",Ulcer Index (1˜5),male SD rat,1.8 ± 1.0
same,"IC50, μg/ml COX-2",COX-2,0.05 µg/mL
CC1(C)OC(c2ccc(S(N)(=O)=O)cc2)=C(c2cccc(Cl)c2)C1=O [Example 126],% Inhibition (CFE),[1],39%
same,"IC50, μg/ml COX-2",COX-2,0.014 µg/mL
"CC1(C)OC(c2ccc(S(N)(=O)=O)cc2)=C(c2cccc(F)c2)C1=O [Example 129, 5-{4-(aminosulfonyl)phenyl}-2,2-dimethyl-4-(3-fluorophenyl)-3(2H)-furanone]",% Inhibition (CFE),[1],47%
same,"IC50, μg/ml COX-2",COX-2,0.0067 µg/mL
CC1(C)OC(c2ccc(S(N)(=O)=O)cc2F)=C(c2ccc(F)cc2)C1=O [Example 334],% Inhibition (CFE),[1],37%
same,"IC50, μg/ml COX-2",COX-2,0.03 µg/mL
